Results as given in patent US12295957B2, “Ascorbic acid and quinone compounds in combination with an antiparasitic agent for treating a parasitic disease” (IC-MedTech Corp., priority 2018, dated 2025).
Entries after “also recorded” stand apart in the source; their conditions may differ.

Legend:
Type in all cases: in vivo, BALB/c mice
Trypanosoma cruzi [1] = assay: Survival/mortality of mice with acute Trypanosoma cruzi infection; details: for mortality: vitamin C 200 mg/kg or vitamin K3 3.5 mg/kg alone, orally once a day
Description: (§1) Male BALB/c mice (approximately 7-8 weeks) were infected intraperitoneally with 10^4 parasites per mouse. Treatment started 24 hours after infection. The administration of vitamin C (i.e., L-ascorbic acid), vitamin K3 (i.e., 2-methyl-1,4-naphthoquinone or menadione), APATONE®, and benznidazole, alone or in combination, were administered once a day orally in different concentrations.
(§2) The mice were divided into the following groups and each group contained seven mice: • i. infected and not treated; • ii. infected and treated with 200 mg/kg of vitamin C; • iii. infected and treated with 3.5 mg/kg of vitamin K3; • iv. infected and treated with APATONE® (200 mg/kg of vitamin C and 3.5 mg/kg of vitamin K3); • v. infected and treated with APATONE® (200 mg/kg of vitamin C and 3.5 mg/kg of vitamin K3) plus 5 mg/kg benznidazole; • vi. infected and treated with benznidazole at 5 mg/kg; • vii. infected and treated with benznidazole at 100 mg/kg; and • viii. not infected and not treated.
(§3) Parasitemia levels were individually checked every day starting from 3 days postinfection (dpi) over a 21-day period by direct microscopic analysis of 5 μL blood drawn by puncture of the tail tip of each mouse. The parasites present in 50 fields were counted in 40× objective. Mortality was checked daily until 21 dpi and was expressed as a percentage of survival. All assays were carried out after the approval of the Ethical Conduct on the use of Animals in Experiments (CEAE) of UE111, protocol number CEUA 6642060717.

IL-6 = assay: Heart cytokine level (cytokine bead array, flow cytometry) in T. cruzi infected mice: IL-6
Description: (§4) Cytokine analysis was performed on the mice infected with T. cruzi. A cytokine bead (CBA) kit was used to quantify the levels of Th1 cytokines (IL-2, TNF-α, and INF-γ), Th2 (IL-4, IL-5, and IL-10A), and Th17 (IL-17) by flow cytometry. Seven bead populations with different fluorescence intensities were conjugated to a specific capture antibody for each cytokine, mixed to the CBA and read […] FL3 channel of a FACSCalibur flow cytometer. The populations of beads were visualized according to their respective fluorescence intensities: from less bright to brighter.
(§5) Acquisition tubes were prepared with: 50 μL of a sample, 50 μL of beads, and 50 μL of Th1/Th2/Th17 PE (Mouse Th1/Th2/Th17 PE Detection Reagent/1 vial, 4 mL). The same procedure was performed to obtain a standard curve. The samples in the tubes were homogenized and incubated for three hours at room temperature in dark. The data acquisition and analysis were performed using a FACSCalibur flow cytometer equipped with a CellQuest software.
(§6) The levels of proinflammatory (IL-6, TNF-α, INF-γ, IL-2, and IL-17) and anti-inflammatory cytokines (IL-4 and IL-10) in heart (FIG. 3) in blood were determined on the mice infected with T. cruzi. […] However, the levels of IL-6 and TNF-α in this group were still high compared with the uninfected and untreated group. […] Thus, it is likely that the high levels of IL-6 and TNF-α in the mice infected with T. cruzi and treated with benznidazole (5 mg) are related to the inflammatory process induced by the parasite in the bloodstream. […] Thus, it is likely that the high levels of IL-6 and TNF-α in the mice infected with T. cruzi and treated with benznidazole (100 mg) are related to the proinflammatory activity of benznidazole (a side effect). […] The levels of IL-6, TNF-α, and IFN-γ in the group treated with APATONE® and benznidazole (5 mg/kg/day) in combination are similar to the levels of IL-6, TNF-α and IFN-γ in the uninfected and untreated group.

Trypanosoma cruzi [2] = assay: Parasitemia by direct microscopic count of blood in mice infected with Trypanosoma cruzi; details: 3-21 dpi
Description: as §1, §2
as §3, with “All assays were carried out after the approval of the Ethical Conduct on the use of Animals in Experiments (CEAE) of UE111, protocol number CEUA 6642060717.” left out

TNF-α = assay: Heart cytokine level (cytokine bead array, flow cytometry) in T. cruzi infected mice: TNF-α
Description: as §4, §5, §6

[3] = benznidazole alone at 5 mg/kg, seven mice per group, until 21 dpi

| Compound | mice remaining (Trypanosoma cruzi [1]; [3]) [mice] | mice that died (Trypanosoma cruzi [1]; [3]) | mice that died (Trypanosoma cruzi [1]; benznidazole alone at 100 mg/kg, until 21 dpi) | level of IL-6 in heart compared with the infected and untreated group (IL-6; benznidazole at 5 mg) | level of IL-6 in heart compared with the uninfected and untreated group (IL-6; benznidazole at 5 mg) | level of IL-6 in heart compared with the infected and untreated group (IL-6; benznidazole at 100 mg) | level of IL-6 in heart compared with the uninfected and untreated group (IL-6; benznidazole at 100 mg) | parasites in the bloodstream (parasitemia) (Trypanosoma cruzi [2]; benznidazole alone at 5 mg/kg orally once a day, 5 mg/kg) | parasites in the bloodstream (parasitemia) (Trypanosoma cruzi [2]; benznidazole alone at 100 mg/kg orally once a day, 100 mg/kg) | level of TNF-α in heart compared with the infected and untreated group (TNF-α; benznidazole at 5 mg) | level of TNF-α in heart compared with the uninfected and untreated group (TNF-α; benznidazole at 5 mg) | level of TNF-α in heart compared with the infected and untreated group (TNF-α; benznidazole at 100 mg) | level of TNF-α in heart compared with the uninfected and untreated group (TNF-α; benznidazole at 100 mg) | mortality (Trypanosoma cruzi [1]) |
| --- | --- | --- | --- | --- | --- | --- | --- | --- | --- | --- | --- | --- | --- | --- |
| O=C(Cn1ccnc1[N+](=O)[O-])NCc1ccccc1 [benznidazole] | 4 | Three mice died | No mice died | significant decrease | still high | significant decrease | still high | did not decrease the amount of parasites | no parasite was observed; also recorded: no parasite detected | significant decrease | still high | significant decrease | still high |  |
| O=C1O[C@H]([C@@H](O)CO)C(O)=C1O [vitamin C, L-ascorbic acid] |  |  |  |  |  |  |  |  |  |  |  |  |  | died from day 14 |
| CC1=CC(=O)c2ccccc2C1=O [vitamin K3, 2-methyl-1,4-naphthoquinone] |  |  |  |  |  |  |  |  |  |  |  |  |  | died from day 14 |
